Results published in patent US10485836B2, “Anti-fatigue composition used for increasing endurance performance, and use of the same” (SINPHAR PHARMACEUTICAL CO., LTD., priority 2017, dated 2019).

How the values were obtained:
C2C12 muscle cells [1] = test: Oxygen consumption rate of TNF-α damaged muscle cells (Seahorse XF24); type: cell-based, mice; details: TNF-α 10 ng/ml, relative to control group (1-fold); for oxygen consumption of ATP production: FIG. 1A; for oxygen consumption of maximal respiration: FIG. 1B
Description: (§1) It is known that severe exercise or long-term exercise may lead to a large release of tumor necrosis factor alpha (TNF-α) and a decrease in mitochondria functions such as oxygen consumption rate (OCR, which represents the ability of aerobic metabolism of mitochondria) and extracellular acidification rate (ECAR, which represents the ability of glycolysis of mitochondria), so that the mitochondria cannot generate enough energy to supply cells in a subject, thereby resulting in the occurrence of fatigue in the subject. In this example, the C2C12 muscle cells with TNF-α induced damages were administered with the composition of the present invention, which comprises Cistanche tubulosa extract and ubiquinol, to understand the effect of the composition on anti-fatigue.
First, C2C12 cells (i.e., the muscle cells of mice; purchased from ATCC) were cultivated in an H-DMEM medium (purchased from Sigma company) containing 10% fetal bovine serum (purchased from BI company). After the C2C12 cells grew to the confluence rate of 80% (i.e., the mixed monolayer cells were accounted for 80% of the area), the cells were divided into seventeen groups (including a control group, a TNF-α group and fifteen experimental groups) and separately subjected to the following treatments: • 1. Control group: cells were cultivated in an H-DMEM medium for 6 hours; and then, the medium was replaced with a differentiation medium (containing an H-DMEM medium and 2% horse serum), and the cells were continuously cultivated for another 4 days. • 2. TNF-α group: cells were cultivated in an H-DMEM medium for 6 hours; and then, the medium was replaced with a differentiation medium (containing an H-DMEM medium and 2% horse serum) being externally added with TNF-α (to a final concentration of 10 ng/ml), and the cells were continuously cultivated overnight; finally, the medium was replaced with a differentiation medium, and the cells were cultivated for another 4 days. • 3. […] In Table 1, the extract and ubiquinol were dissolved in a differentiation medium, and the unit “μg/ml” represents the weight of extract (as dry weight) and/or ubiquinol (as dry weight) in every milliliter of the differentiation medium.
The cells in the control group, TNF-α group and experimental groups 1 to 15 provided by Example (1-1) were respectively taken, and the oxygen consumption rates (including the oxygen consumption of ATP production and the oxygen consumption of maximal respiration) thereof were examined by a cell energy metabolism analyzer (Seahorse XF24). Then, the result of the control group was served as a basis (i.e., the oxygen consumption rate of the control group was set as 1-fold) to calculate the oxygen consumption rate of each group.

C2C12 muscle cells [2] = test: Extracellular acidification rate of TNF-α damaged muscle cells (cell energy metabolism analyzer); type: cell-based, mice; details: TNF-α 10 ng/ml, relative to control group (1-fold)
Description: as §1
First, C2C12 cells (i.e., the muscle cells of mice; purchased from ATCC) were cultivated in an H-DMEM medium (purchased from Sigma company) containing 10% fetal bovine serum (purchased from BI company). After the C2C12 cells grew to the confluence rate of 80% (i.e., the mixed monolayer cells were accounted for 80% of the area), the cells were divided into seventeen groups (including a control group, a TNF-α group and fifteen experimental groups) and separately subjected to the following treatments: • 1. […]

Row | Molecule | oxygen consumption of ATP production (C2C12 muscle cells [1]) | oxygen consumption of maximal respiration (C2C12 muscle cells [1]) | glycolysis level (C2C12 muscle cells [2]; FIG. 2A) | glycolytic reserve (C2C12 muscle cells [2]; FIG. 2B)
1 | COc1c(O)c(C)c(C/C=C(\C)CC/C=C(\C)CC/C=C(\C)CC/C=C(\C)CC/C=C(\C)CC/C=C(\C)CC/C=C(\C)CC/C=C(\C)CC/C=C(\C)CCC=C(C)C)c(O)c1OC [ubiquinol] | cannot alleviate | cannot alleviate | – | –
2 | TNF-α | significantly decreased | significantly decreased | significantly increased | significantly decreased
